Measured values reported in patent publication US20260165321A1, “FUMIGANT COMPOSITION FOR PEST CONTROL” (priority 2020, published 2026).
Values after ≈ are worked out from the molar mass of the structure shown.

Experiments:
Format in all cases: in vivo
[1] = system: rice weevil (Sitophilus oryzae); settings: adult rice weevil, fumigation 2 hours, about 24° C., 1-liter container
Description: (§1) The poisoning ability index used in the following examples is the internationally commonly used median lethal concentration (LC50), which refers to a dosage required to kill 50% of a group of tested insects. The main test method is to include a number of tested insect (adults or larvae) and the examined chemical at a wide range of dosage in a 1-liter airtight transparent containers for a period of time. Afterward, the airtight containers were opened for ventilation, and the dead insects in the containers were counted. The linear regression between the mortality, expressed as probability unit, and the log dosage was analyzed using the software Priprobit v1.63, from which the value of LC50 could be obtained.
Put 30 adult insects of rice weevil (Sitophilus oryzae) into each of a group of 1-liter transparent containers, on which the name of tested chemical and the predetermined dosage are marked. Wherein, the chemicals to be tested include 2,5-dimethylfuran, 2,5-dimethylthiophene, 2-methylfuran, 2-methylthiophene, 2-ethylfuran and 2-ethylthiophene. The airtight containers, which contain the insect and chemical, are left at room temperature of about 24° C. for 2 hours. Afterward, the containers are opened for ventilation, and the dead rice weevils (Sitophilus oryzae) in each of the containers are counted. The linear regression between mortality and log dosage is analyzed using the software Priprobit v1.63, from which the lethal concentrations 50% (LC50) and 95% (LC95) are calculated.

[2] = system: German cockroach (Blattella germanica); assay: Fumigant toxicity test (1), 2 h in 1-liter airtight container; settings: fumigation 2 hours, ~24° C., 30 insects, doses 0-180 mg/dm^3
Description: as §1
(§2) Take several 1-liter airtight transparent containers marked with different doses of 2,5-dimethylfuran, then put 30 insects into each of the transparent containers and add 2,5-dimethylfuran with marked doses (0, 18, 45, 90, 180 mg/dm^3), respectively, into each of the transparent containers. Place the containers at room temperature (˜24° C.) for 2 hours, and then quantitate the dead insects in each of the transparent containers. Wherein, the insects used include German cockroach (Blattella germanica), green peach aphid (Myzus persicae), brown planthopper (Nilaparvata lugens), diamondback moth (Plutella xylostella), rice weevil (Sitophilus oryzae), lesser grain borer (Rhyzopertha dominica), and sweet potato weevil (Cylas formicarius).

[3] = system: rice weevil (Sitophilus oryzae); assay: as above; settings: fumigation 2 hours, ~24° C., 30 insects, doses 0-180 mg/dm^3
Description: as §1, §2

[4] = system: brown planthopper (Nilaparvata lugens); assay: as above; settings: fumigation 2 hours, ~24° C., 30 insects, doses 0-180 mg/dm^3
Description: as §1, §2

[5] = system: diamondback moth (Plutella xylostella); assay: as above; settings: fumigation 2 hours, ~24° C., 30 insects, doses 0-180 mg/dm^3
Description: as §1, §2

[6] = system: lesser grain borer (Rhyzopertha dominica); assay: as above; settings: fumigation 2 hours, ~24° C., 30 insects, doses 0-180 mg/dm^3
Description: as §1, §2

[7] = system: green peach aphid (Myzus persicae); assay: as above; settings: fumigation 2 hours, ~24° C., 30 insects, doses 0-180 mg/dm^3
Description: as §1, §2

| SMILES | LC95 [95% CI] [1] [µg/mL] | further results |
| --- | --- | --- |
| Cc1cccs1 [2-methylthiophene] | 54.6 (≈ 556 µM) |  |
| CCc1ccco1 [2-ethylfuran] | 146.5 (≈ 1520 µM) |  |
| CCc1cccs1 [2-ethylthiophene] | 20.6 (≈ 184 µM) |  |
| Cc1ccc(C)s1 [2,5-dimethylthiophene] | 135.3 (≈ 1210 µM) |  |
| Cc1ccco1 [2-methylfuran] | 329.7 (≈ 4020 µM) |  |
| Cc1ccc(C)o1 [2,5-dimethylfuran] | 111.6 (≈ 1160 µM) | administered dosage required to kill all the tested individuals [2]: 90 mg/L; administered dosage required to kill all the tested individuals [3]: 90 mg/L; administered dosage required to kill all the tested individuals [4]: 90 mg/L; administered dosage required to kill all the tested individuals [5]: 90 mg/L; administered dosage enough to kill all the tested individuals [6]: 18 mg/L; administered dosage enough to kill all the tested individuals [7]: 18 mg/L |
